Laboratory results published in a melting point compilation (Tetko et al.; mined from patent text by program, amines drawn as free bases though some values may be those of a salt).

With `COCN(C(=O)Nc1ccc(Cl)cc1)C(=O)c1c(Cl)cccc1Cl` the melting point was 122 °C.
`CN1CCN(c2nc(-c3ccccc3)c3ccccc3n2)CC1` showed a melting point of 101 to 122 °C.
`CCCn1nc(-c2ccc(O)c(F)c2)c2cccc(-c3ccccc3)c21` gave a melting point of 177 to 178 °C.
`COC(=O)C1Oc2ccc(Cl)cc2C(c2ccccc2)(C(C)C)O1` (stereo not given) showed a melting point of 114 to 115 °C.
In the case of `CCCC(CCC)n1c(CC)nc2[nH]c(=O)n(C)c(=O)c21`, the melting point is reported as 152 to 153 °C.
Work on `CC(C)NC(=O)c1ccc(CCN2CC=C(c3c[nH]c(-c4ccc(F)cc4)c3-c3ccncc3)CC2)cc1` yielded a melting point of 178 to 180 °C.
In the case of `CCP(=O)(O)c1cc(Oc2ccc(C(F)(F)F)cc2Cl)ccc1[N+](=O)[O-]`, the melting point is reported as 99 °C.
Molecule `O=[N+]([O-])c1cnn2c(-c3cccnc3)ccnc12` has a melting point of 302 to 303 °C.
For `O=C(O)CCCNC(=O)c1ccccc1NC(=O)c1ccc(Cl)cc1`, the melting point was 182 to 184 °C.
`O=c1c2c(Cl)cccc2nc(C(S)c2ncnc3[nH]cnc23)n1-c1ccccc1F` (stereo not given) showed a melting point of 244 °C.
`COc1ccc2[nH]cc(C3CCN(CCCCN4C(=O)c5ccccc5C4=O)CC3)c2c1` gave a melting point of 155 °C.
In the case of `Clc1cccc(C(c2ccnc3ccccc23)n2cnnc2)c1` (stereo not given), the melting point is reported as 203 °C.
Molecule `CCOC(=O)c1n[nH]c(CC)c1Sc1cc(Cl)cc(Cl)c1` has a melting point of 138 to 139 °C.
For `CCn1ncc2c(NCc3ccco3)c3ccccc3nc21`, the melting point was 156 to 158 °C.
`Cc1cccc(Nc2cc(Cl)nc(SCC(=O)NN3CCCCC3)n2)c1C` showed a melting point of 113 to 115 °C.
Molecule `Cn1c(CNCC2CCOCC2)cc2cc(NC(=O)c3ccc(OCC4CCOC4)cc3)ccc21` (stereo not given) has a melting point of 153 to 154 °C.
With `COc1cc(-c2cccs2)c(OC)c2c(OC)cc(-c3cccs3)c(OC)c12` the melting point was 234 to 237 °C.
For `N#CN=C(N)NCCCCNC(=O)[C@@H](Cc1ccccc1)NC(=O)CCCC(=O)O`, the melting point was 63 °C.
Molecule `COc1ccc(N2CCN(c3c(C)c(C)c4c(c3C)C(c3ccc(F)nc3)C(C)(C)O4)CC2)cc1` (stereo not given) has a melting point of 87 to 88 °C.
`O=C(O)C=CC(=O)N(CC1CO1)NCC1CO1` (stereo not given) gave a melting point of 58 °C.
In the case of `CCCCCCCCCCCCCCc1ccc(OC)cc1`, the melting point is reported as 38 °C.
For `COC(=O)C(Cl)=Cc1cccc([N+](=O)[O-])c1Cl`, the melting point was 110 to 112 °C.
`CCOC(=O)c1ccc(OCCN2CCN(c3ccc(I)nn3)CC2)cc1` gave a melting point of 123 °C.
In the case of `CCCCc1nc2cccnc2n1-c1ccc(OCc2ccc(OC)c(OC3CC4CCC3C4)c2)cc1` (stereo not given), the melting point is reported as 130 to 132 °C.
Work on `CC1(C)CC(=O)c2c(C(=O)O)c[nH]c2C1` yielded a melting point of 231 to 232 °C.
For `C=CC(=O)NCCCCCCCCOc1ccccc1`, the melting point was 45 to 47 °C.
With `CC(=O)N1CCCc2cc(CO)ccc21` the melting point was 95 to 106 °C.
With `CC1CCc2c(N3CCC(O)CC3)c(F)cc3c(=O)c(C(=O)O)cn1c23` (stereo not given) the melting point was 244 to 247 °C.
`COc1ccc(C(=C(C)C(=O)O)c2ccc(OC)cc2)cc1` showed a melting point of 134 to 135 °C.
For `COc1ccc(C2CNCc3c2ccc(OC)c3Cl)cc1OC` (stereo not given), the melting point was 130 to 132 °C.
`CSC(=S)OC(C(=O)O)c1ccccc1` (stereo not given) gave a melting point of 109 to 110 °C.
In the case of `CCc1ccc2c(c1)C(O)(c1ccccn1)CC(C)(C)CO2` (stereo not given), the melting point is reported as 84 °C.
For `CC(=O)NC(C)c1ccc(CN2CCN(c3ncccn3)CC2)cc1` (stereo not given), the melting point was 124 to 126 °C.
With `CS(=O)c1ccc2c(c1)C(=O)C1(CC1)O2` (stereo not given) the melting point was 87 to 90 °C.
Molecule `CCCCCCCCCCCCCCCCN(CC(O)CO)C(=O)CCCCC` (stereo not given) has a melting point of 38.8 °C.
Work on `Cc1cnc2n1-c1cc(Cl)c(Cl)cc1N=C(c1ccc(-n3c(C)nnc3C)cc1)C2` yielded a melting point of 165 °C.
With `CN(C)CCOc1ccc2[nH]c(C(=O)N3CC(CCl)c4c3cc([N+](=O)[O-])c3cc([N+](=O)[O-])ccc43)cc2c1` (stereo not given) the melting point was 263 to 264 °C.
In the case of `CCOC(=O)C1=C(C)Nc2nc(N3CCOCC3)nc(N3CCOCC3)c2C1c1ccc(Cl)cc1` (stereo not given), the melting point is reported as 128 °C.
With `Cc1nnc(-c2ccc3occ(-c4ccc(CO)cc4)c3c2)o1` the melting point was 157 to 158 °C.
In the case of `CNc1nc2ccc(-c3nc4cc(C)ccn4c3C)cc2s1`, the melting point is reported as 191 to 194 °C.
In the case of `CCOC(=O)c1sc2nc(C)c(CC)c(=O)n2c1C`, the melting point is reported as 122 to 124 °C.
Work on `OCCSc1c(Cl)c(Cl)c(SCCO)c(Cl)c1Cl` yielded a melting point of 149 to 152 °C.
For `O=C(c1ccccc1)c1cnc2c(cnn2Cc2ccco2)c1O`, the melting point was 102 °C.
Work on `NC(=O)C1(Nc2ccc(I)cc2)CCCC1` yielded a melting point of 148 °C.
`COc1cc2c(cc1Nc1ncc(Cl)c(Nc3ccc(N4CCOCC4)cc3OC)n1)CCN(CC(=O)N(C)C)CC2` gave a melting point of 67 to 76 °C.
Work on `CCS(=O)(=O)CC(=O)Nc1c(C)cccc1C` yielded a melting point of 128 to 130 °C.
Molecule `CCN(CC)CCCCC(=O)c1cc(Cl)c(N)cc1OCc1cc(OC)cc(OC)c1` has a melting point of 105 to 107 °C.
With `CC(C)(C)c1ccc(/C=C/C(=O)Nc2ccc3nccnc3c2)cc1` the melting point was 229 to 230 °C.
With `Cn1nc2c(N)nc3c(c2c1CCNC(=O)N1CCOCC1)CCCC3` the melting point was 187 to 188 °C.
`CCCCCCCCCCCCCCOC(=O)CCC(=O)CCC(=O)OCC` gave a melting point of 43 °C.
`CSC[C@H](NCc1ccccc1N)C(=O)O` showed a melting point of 193 °C.
`O=C(Nc1ccc(Oc2ccnc(N3CCCC3)n2)c2ccccc12)c1cc(F)cc(N2CCCCC2)c1` showed a melting point of 111 to 113 °C.
`Cn1c(=S)ccn(C2OC(CO)C(O)C2O)c1=O` (stereo not given) showed a melting point of 146 to 148 °C.
`O=C(Nc1ccc2[nH]c(=O)sc2c1)C(=O)N1CCC(Oc2ccc(Cl)cc2)CC1` gave a melting point of 245 to 247 °C.
`Cc1c(CN2CCc3c(c4cccc(F)c4n3C)C2=O)ncn1C(=O)OCc1ccccc1` showed a melting point of 126 to 128 °C.
Work on `Cc1ccc(S(=O)(=O)NC[C@H](C)NCc2c(Cl)ccc([N+](=O)[O-])c2Cl)cc1` yielded a melting point of 85 to 88 °C.
Work on `Cc1ccc(CNCCOc2cccc3[nH]c(=O)[nH]c23)cc1` yielded a melting point of 162 to 163 °C.
In the case of `CNc1ccc(F)cc1C(C)=O`, the melting point is reported as 43 to 45 °C.
`CCCCCCCCCCCCCCCCCCN(CCCCCCCCCCCCCCCCCC)CCCN(CC(=O)OC)CC(=O)OC` gave a melting point of 75 to 77 °C.
`Cc1ccc(C2(C(=O)O)CC2C(=O)O)cc1` (single isomer, unassigned; (-)) gave a melting point of 145 to 148 °C.
For `CCOC(=O)c1cccc2nc(S)n(Cc3ccc(-c4ccccc4C#N)cc3)c12`, the melting point was 225 to 227 °C.
`Cc1c(C2=CCC(c3ccccc3)(N(C)C)CC2)[nH]c2ccc(F)cc12` (stereo not given) showed a melting point of 171 to 175 °C.
With `CCCc1cc(C(=O)NCCC(=O)O)ccc1OC(C(=O)NS(=O)(=O)c1ccc(C(C)C)cc1)c1ccc2c(c1)OCO2` (stereo not given) the melting point was 199 to 201 °C.
`COc1ccc(C(=O)Nc2ccc3ccc(Oc4ccccc4Br)nc3n2)cc1` gave a melting point of 183 °C.
Molecule `COC(=O)Cc1sc(S)nc1C` has a melting point of 139 to 140 °C.
`O=C1NCCc2c(OCCc3ccccc3)cccc21` showed a melting point of 149 to 150 °C.
Molecule `O=C(O)c1cn2c(ccc3ccc(Cl)cc32)n1` has a melting point of 288 to 289 °C.
`Cc1cc(-c2cccc(C3=Nc4ccc(-c5ccccc5F)cc4NC(=O)C3)c2)on1` gave a melting point of 222 to 224 °C.
Work on `NC(=O)C1CN(Cc2ccccc2)CCN1CCCC(c1ccc(F)cc1)c1ccc(F)cc1` (stereo not given) yielded a melting point of 79.2 °C.
`O=C(O)CCCNC(=O)c1nc(Cl)c(Cl)[nH]1` gave a melting point of 285 °C.
For `CCCCNC(=O)Oc1cccc(NC(=O)NC2CC2)c1`, the melting point was 154 °C.
`CCOC(=O)c1ccc(Cn2c(C)nc3cnccc32)cc1` showed a melting point of 164 to 166 °C.
In the case of `NS(=O)(=O)c1ccc(C2=C(c3cccc(F)c3F)CCC2)cc1`, the melting point is reported as 133 to 134 °C.
For `O=C1CCC(c2ccc3c(c2)NC(=O)CS3)=NN1`, the melting point was 299 to 302 °C.
`CN1C(=O)C(c2cccc(OCc3ccccc3)c2)(c2cnn(CC(F)(F)F)c2)N=C1N` (stereo not given) showed a melting point of 85 to 87 °C.
`Cn1c(C(F)(F)F)cc(=O)n(-c2cc(S)c(Cl)cc2F)c1=O` gave a melting point of 132 °C.
Work on `COc1ccc(C(=O)C=Cc2ccccc2[N+](=O)[O-])c(OC)c1OC` yielded a melting point of 107 to 108 °C.
In the case of `NC(=O)c1cc(NCc2cccc(F)c2)c([N+](=O)[O-])cc1[N+](=O)[O-]`, the melting point is reported as 175 to 177 °C.
`Cc1cn(C2OC(COC(=O)c3ccccc3)C(OC(=O)c3ccccc3)C2F)c(=O)[nH]c1=O` (stereo not given) gave a melting point of 120 to 122 °C.
Work on `CCc1cc(C)cc(C)c1NC(=S)NC(C)(C)CC` yielded a melting point of 105 to 107 °C.
Work on `CCc1cc(C(C)=O)c(O)c(C(=O)Nc2nnn[nH]2)c1` yielded a melting point of 257 to 258 °C.
Work on `O=C1NC(=O)C(=Cc2ccc(OCCN3C(=O)SC(Cc4ccccc4)C3=O)cc2)S1` (stereo not given) yielded a melting point of 145 to 147 °C.
`CC(C)n1c(=O)ccc2cnc(S(C)=O)nc21` (stereo not given) gave a melting point of 132 to 133 °C.
Molecule `O=C1N[C@H](Cc2ccc(C(F)(F)F)cc2)[C@H](c2ccncc2)O1` (racemic) has a melting point of 212 to 213 °C.
For `CC(=O)ONC(=N)c1ccc(-c2ccc(-c3ccc(C(=N)NOC(C)=O)cc3C)o2)nc1`, the melting point was 226 to 229 °C.
For `O=C(c1cc(N2CCC(N3CCCC3)CC2)ccn1)N(O)Cc1ccccc1`, the melting point was 135 to 140 °C.
With `Cc1nn2c(C=O)c(-c3ccccc3)nc2s1` the melting point was 152 to 153 °C.
For `COC(=O)c1c(-c2ccc(C(F)(F)F)cc2)ccc2ccccc12`, the melting point was 74 to 76 °C.
`CCOC(=O)C=Cc1ccc(O)c(Br)c1` showed a melting point of 112 to 113 °C.
`NS(=O)(=O)c1cc(Br)cc(C(F)(F)F)c1` gave a melting point of 174 to 175 °C.
Work on `CCc1nc2c(C)c(NS(C)(=O)=O)cnc2n1-c1ccc(CCNC(=O)NS(=O)(=O)c2ccc(C)cc2)cc1` yielded a melting point of 166 °C.
With `COc1ccc2c3c(cn2S(=O)(=O)c2ccc(C)cc2)CC(NC(=O)C(F)(F)F)C(=O)c13` (stereo not given) the melting point was 189 to 190 °C.
Work on `CC(C)c1nc(C(C)C)c(C(C)O)c(-c2ccc(F)cc2)c1-c1ccccc1` (stereo not given) yielded a melting point of 155 to 157 °C.
Work on `N#Cc1ccc(Cn2cncc2CN2CCC3(CC2)C(=O)Nc2ccccc23)cc1` yielded a melting point of 245 to 247 °C.
Work on `Cn1cccc(C(=O)Nc2ccc3c(c2)NC(=O)/C3=C\c2ccc[nH]2)c1=O` yielded a melting point greater than 300 °C.
`CCOP(=S)(OCC)N1C(=O)c2ccccc2C1=O` showed a melting point of 81 to 83 °C.
With `Cc1ccc(N2CCN(CCCc3ccc(C4CCC(=O)N4)cc3)CC2)cc1` (stereo not given) the melting point was 143 to 145 °C.
`Cc1sc(-c2ccco2)nc1O` showed a melting point of 173 to 174 °C.
Work on `CC(C)(C)NS(=O)(=O)c1ccc([Si](C)(C)C)s1` yielded a melting point of 102 to 104 °C.
In the case of `CC(C)OC(=O)c1cc(-n2c(Cl)nc(C(F)(F)F)cc2=O)c(F)cc1Cl`, the melting point is reported as 72 to 75 °C.
